Results taken from ChEMBL document CHEMBL1142994, “Structure-based design, synthesis, and biological evaluation of potent and selective macrocyclic checkpoint kinase 1 inhibitors” (J Med Chem, 2007).

Legend:
[1] = molecular target: T1, Serine/threonine-protein kinase Chk1 (Homo sapiens, UniProt O14757); assay: Inhibition of recombinant Chk1
T1 sequence (O14757 whole entry): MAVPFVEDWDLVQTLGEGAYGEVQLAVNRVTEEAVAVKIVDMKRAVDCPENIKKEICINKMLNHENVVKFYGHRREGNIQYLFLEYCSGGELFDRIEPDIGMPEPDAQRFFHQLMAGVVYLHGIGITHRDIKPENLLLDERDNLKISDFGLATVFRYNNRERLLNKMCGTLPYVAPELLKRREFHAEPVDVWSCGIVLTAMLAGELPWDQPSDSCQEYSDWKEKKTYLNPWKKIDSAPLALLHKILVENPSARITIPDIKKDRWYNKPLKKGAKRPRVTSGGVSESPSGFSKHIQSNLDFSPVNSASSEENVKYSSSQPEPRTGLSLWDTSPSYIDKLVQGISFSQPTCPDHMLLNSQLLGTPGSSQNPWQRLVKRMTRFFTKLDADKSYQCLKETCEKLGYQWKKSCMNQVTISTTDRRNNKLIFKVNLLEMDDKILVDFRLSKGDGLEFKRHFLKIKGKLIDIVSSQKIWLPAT

NCI-H1299 [2] = assay: Inhibition of accumulation of H1299 cells in G2/M phase in presence of doxorubicin by FACS assay; type: functional, cell-based, Homo sapiens
HeLa [3] = assay: Cytotoxicity against HeLa cells in presence of doxorubicin by MTS assay; type: functional, cell-based, Homo sapiens
HeLa [4] = assay: Cytotoxicity against HeLa cells by MTS assay; type: functional, cell-based, Homo sapiens
NCI-H1299 [5] = assay: Accumulation of H1299 cells in G2/M phase measured as cell cycle arrest by FACS assay; type: functional, cell-based, Homo sapiens
[6] = molecular target: T2, Calcium/calmodulin-dependent protein kinase type IV (Homo sapiens, UniProt Q16566); assay: Inhibition of Camk4
T2 sequence (Q16566 whole entry): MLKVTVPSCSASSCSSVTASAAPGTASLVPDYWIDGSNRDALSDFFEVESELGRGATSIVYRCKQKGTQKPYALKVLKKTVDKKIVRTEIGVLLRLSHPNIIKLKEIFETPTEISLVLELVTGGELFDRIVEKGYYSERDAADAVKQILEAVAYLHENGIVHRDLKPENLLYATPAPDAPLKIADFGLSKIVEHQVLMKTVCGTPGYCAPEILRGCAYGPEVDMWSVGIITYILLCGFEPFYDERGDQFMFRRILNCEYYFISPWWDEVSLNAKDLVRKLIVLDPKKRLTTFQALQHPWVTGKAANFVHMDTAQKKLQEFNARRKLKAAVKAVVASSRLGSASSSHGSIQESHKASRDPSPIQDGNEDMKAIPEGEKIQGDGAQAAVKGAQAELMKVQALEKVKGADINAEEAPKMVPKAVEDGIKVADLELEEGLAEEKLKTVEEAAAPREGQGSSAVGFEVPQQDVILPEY

[7] = molecular target: T3, Serine/threonine-protein kinase Sgk1 (Homo sapiens, UniProt O00141); assay: Inhibition of SGK
T3 sequence (O00141 whole entry): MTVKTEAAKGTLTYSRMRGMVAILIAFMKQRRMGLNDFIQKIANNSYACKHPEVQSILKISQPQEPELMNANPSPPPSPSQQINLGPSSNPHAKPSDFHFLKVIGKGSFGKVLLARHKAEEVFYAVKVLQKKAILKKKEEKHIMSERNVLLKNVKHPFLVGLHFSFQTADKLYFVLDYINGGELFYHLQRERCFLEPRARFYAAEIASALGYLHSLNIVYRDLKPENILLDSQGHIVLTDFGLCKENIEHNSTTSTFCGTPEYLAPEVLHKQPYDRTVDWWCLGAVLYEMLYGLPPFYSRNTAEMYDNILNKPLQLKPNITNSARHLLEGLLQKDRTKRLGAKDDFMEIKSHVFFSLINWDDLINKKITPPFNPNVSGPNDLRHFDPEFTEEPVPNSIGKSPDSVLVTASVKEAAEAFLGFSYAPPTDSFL

[8] = molecular target: T4, Mitogen-activated protein kinase 13 (Homo sapiens, UniProt O15264); assay: Inhibition of p38 delta
T4 sequence (O15264 whole entry): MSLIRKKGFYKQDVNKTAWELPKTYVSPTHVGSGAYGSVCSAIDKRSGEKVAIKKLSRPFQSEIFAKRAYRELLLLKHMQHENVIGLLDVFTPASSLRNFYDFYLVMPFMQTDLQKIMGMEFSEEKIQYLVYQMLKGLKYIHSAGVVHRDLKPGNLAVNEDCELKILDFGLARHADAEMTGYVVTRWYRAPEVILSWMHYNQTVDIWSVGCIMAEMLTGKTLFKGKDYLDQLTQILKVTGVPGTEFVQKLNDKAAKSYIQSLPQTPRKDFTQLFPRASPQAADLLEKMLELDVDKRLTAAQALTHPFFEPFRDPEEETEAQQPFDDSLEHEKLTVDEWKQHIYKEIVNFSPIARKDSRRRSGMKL

[9] = Homo sapiens, HeLa, read-out: EC50

With `CC(O)C#Cc1cc2c(cc1Cl)NC(=O)Nc1cnc(C#N)c(n1)OCCCCCO2` (stereo unspecified) the IC50 [1] was 26 nM.

Work on `N#Cc1ncc2nc1OCCCCCOc1cc(CC(O)CO)c(Cl)cc1NC(=O)N2` (stereo unspecified) yielded an IC50 [1] of 5 nM.

For `CCN(CC)CC#Cc1cc2c(cc1Cl)NC(=O)Nc1cnc(C#N)c(n1)OCCCCCO2`, the IC50 [1] was 2 nM.

In the case of `CN(C)CCOc1cc2c(cc1Cl)NC(=O)Nc1cnc(C#N)c(n1)OCCCCCO2`, the IC50 [1] is reported as 1 nM.

In the case of `CC(C)CCOc1cc2c(cc1Cl)NC(=O)Nc1cnc(C#N)c(n1)OCCCCCO2`, the IC50 [1] is reported as 1060 nM.

`N#Cc1ncc2nc1OCCCCCOc1cc(C#CCO)c(Cl)cc1NC(=O)N2` was tested, and the IC50 [1] was 10 nM.

`N#Cc1ncc2nc1OCCCCCOc1cc(OCCn3ccnc3)c(Cl)cc1NC(=O)N2` gave an IC50 [1] of 3 nM.

For `N#Cc1ncc2nc1OCCCCCOc1ccc(Cl)cc1NC(=O)N2`, the IC50 [1] was 7 nM, the EC50 (NCI-H1299 [2]; Homo sapiens, NCI-H1299) was 2700 nM and the EC50 (HeLa [3]; Homo sapiens, HeLa) was 3040 nM. It also gave an EC50 (HeLa [4]) of 57600 nM and an EC50 (NCI-H1299 [5]; Homo sapiens, NCI-H1299) of over 10000 nM.

Work on `CC(C)Nc1cc2c(cc1Cl)NC(=O)Nc1cnc(C#N)c(n1)OCCCCCO2` yielded an IC50 [1] of 11 nM.

`N#Cc1ncc2nc1OCCCCCOc1cc(NCc3ccncc3)c(Cl)cc1NC(=O)N2` gave an IC50 [1] of 13 nM, an EC50 (NCI-H1299 [2]; nci-h1299) of 1200 nM and an EC50 (HeLa [3]; hela) of 1400 nM. For the same compound, the EC50 (HeLa [4]; hela, read-out: EC50) was over 59000 nM and the EC50 (NCI-H1299 [5]; nci-h1299) was over 10000 nM.

For `CN(C)CC(=O)Nc1cc2c(cc1Cl)NC(=O)Nc1cnc(C#N)c(n1)OCCCCCO2`, the IC50 [1] was 1 nM.

Work on `CCNc1cc2c(cc1Cl)NC(=O)Nc1cnc(C#N)c(n1)OCCCCCO2` yielded an IC50 [1] of 4 nM.

Work on `N#Cc1ncc2nc1OCCCCCOc1cc(OCc3cccnc3)c(Cl)cc1NC(=O)N2` yielded an IC50 [1] of 9 nM.

In the case of `N#Cc1ncc2nc1OCCCCCOc1cc(OCc3ccccn3)c(Cl)cc1NC(=O)N2`, the IC50 [1] is reported as 63 nM.

`N#Cc1ncc2nc1OCCCCCOc1cc(NCCO)c(Cl)cc1NC(=O)N2` gave an IC50 [1] of 2 nM.

Compound `N#Cc1ncc2nc1OCCCCCOc1cc(NCc3ccccc3)c(Cl)cc1NC(=O)N2` has an IC50 [1] of 266 nM.

`CC(=O)Nc1cc2c(cc1Cl)NC(=O)Nc1cnc(C#N)c(n1)OCCCCCO2` was tested, and the IC50 [1] was 7 nM.

Compound `CCOc1cc2c(cc1Cl)NC(=O)Nc1cnc(C#N)c(n1)OCCCCCO2` has an IC50 [1] of 6 nM.

`N#Cc1ncc2nc1OCCCCCOc1cc(OCc3ccncc3)c(Cl)cc1NC(=O)N2` showed an IC50 [1] of 12 nM.

`N#Cc1ncc2nc1OCCCCCOc1cc(NCc3cncs3)c(Cl)cc1NC(=O)N2` gave an IC50 [1] of 6 nM, an EC50 (NCI-H1299 [2]; Homo sapiens, NCI-H1299) of 110 nM and an EC50 (HeLa [3]; Homo sapiens, HeLa) of 1200 nM. For the same compound, the EC50 (HeLa [4]; [9]) was over 59000 nM and the EC50 (NCI-H1299 [5]; Homo sapiens, NCI-H1299) was over 10000 nM.

Compound `N#Cc1ncc2nc1OCCCCCOc1cc(CCCO)c(Cl)cc1NC(=O)N2` has a Ki [6] of over 10000 nM, an EC50 (NCI-H1299 [2]; Homo sapiens, NCI-H1299) of 190 nM and an EC50 (HeLa [3]; Homo sapiens, HeLa) of 860 nM. For the same compound, the EC50 (HeLa [4]; [9]) was 28700 nM, the EC50 (NCI-H1299 [5]; Homo sapiens, NCI-H1299) was over 10000 nM and the Ki [7] was over 10000 nM.

For `CS(=O)(=O)Nc1cc2c(cc1Cl)NC(=O)Nc1cnc(C#N)c(n1)OCCCCCO2`, the Ki [6] was over 10000 nM, the EC50 (NCI-H1299 [2]; Homo sapiens, NCI-H1299) was 1600 nM and the EC50 (HeLa [3]; Homo sapiens, HeLa) was 2700 nM. The EC50 (HeLa [4]; [9]) was over 59000 nM, the EC50 (NCI-H1299 [5]; Homo sapiens, NCI-H1299) was over 10000 nM and the Ki [8] was over 10000 nM. For the same compound, the Ki [7] was over 10000 nM.

`N#Cc1ncc2nc1OCCCCCOc1cc(N3CCCCC3)c(Cl)cc1NC(=O)N2` showed an IC50 [1] of 139 nM.

Compound `O=C1Nc2cncc(n2)OCCCCCOc2ccc(Cl)cc2N1` has an IC50 [1] of 10 nM, an EC50 (NCI-H1299 [2]; Homo sapiens, NCI-H1299) of 7500 nM and an EC50 (HeLa [3]; Homo sapiens, HeLa) of 37800 nM. The EC50 (HeLa [4]) was over 59000 nM and the EC50 (NCI-H1299 [5]; Homo sapiens, NCI-H1299) was over 10000 nM.
